Source: publication PMC6892255, “Identification of a potent small-molecule inhibitor of bacterial DNA repair that potentiates quinolone antibiotic activity in methicillin-resistant Staphylococcus aureus^” (Bioorganic & Medicinal Chemistry, 2019)
“Also recorded” adds a separate entry of the source.

Experiments:
[1] = system: AddAB (StrepII-AddA and His6-AddB); assay: Recombinant AddAB pulldown with compound-functionalized Sepharose; type: binding; settings: E. coli lysate co-expressing StrepII-AddA and His6-AddB, Western blot
Description: A SOS reporter system was generated by transformation of JE2 cells with a plasmid containing GFP under control of the recA promoter. Activation of the SOS response in these cells results in expression of GFP which can be monitored by fluorescence intensity. […] This decrease is indicative of inhibition of the SOS response during cell death, and consistent with the proposed inhibition of AddAB-mediated DNA repair pathways. Finally, to provide additional evidence that inhibition of the bacterial DNA repair pathway by IMP-1700 (10) occurred through inhibition of AddAB, a target pulldown was conducted. IMP-1700 (10) was coupled with N-Boc-ethylenediamine to afford amide 19, followed by removal of the Boc group in 4 M HCl/dioxane and purification using strong cation exchange resin. The resulting free amine 20 was coupled to N-hydroxysuccinimide (NHS)-activated Sepharose resin at 4 °C overnight (Figure 2C), and the remaining NHS sites quenched in Tris buffer. SoluBL21 competent E. coli were transformed with pET28b^+ containing StrepII-tagged AddA and hexahistidine-tagged AddB, and expression induced overnight at 16 °C. Cells were lysed via sonication and the total lysate incubated with IMP-1700 (10)-functionalized or control Sepharose beads which had been treated with DMSO then Tris-quenched. Beads were washed three times with lysis buffer and bound protein eluted with SDS-PAGE sample buffer, followed by PAGE separation. […]
agar (LA) supplemented with kanamycin (50 μg/mL). Liquid cultures were grown at 37 °C with shaking at 180 r.p.m until an OD600 of 0.5 was reached, at which point cultures were cooled to 16 °C. Protein expression was induced by addition of isopropyl β-D-thiogalactoside (1 mM), followed by incubation for 20 h at 16 °C with shaking. Cells were collected by centrifugation (4,000 × g, 5 min) and stored at -20 °C.
Cells were re-suspended in lysis buffer (50 mM Tris-HCl, 150 mM NaCl, pH 7.5) and lysed on ice by sonication (2 min, 5 s on-off cycle, 40% amplitude) using a Vibra-cell sonicator (Sonics). […]

[2] = system: methicillin-resistant S. aureus (MRSA, USA300 JE2); assay: Ciprofloxacin (CFX) potentiation in MRSA growth inhibition assay; type: cell-based, Staphylococcus aureus; settings: compared to IMP-1700 (10)
Method: 2.1. Biological and biochemical methods
Bacterial strains and culture conditions
Strains utilized in the present study are detailed in Table S1. All strains used were cultivated on Mueller Hinton Agar (MHA) and grown to stationary-phase in Mueller Hinton Broth (MHB) at 37 °C for 16 h, with shaking at 180 r.p.m.
Minimum inhibitory concentration (MIC) assays
MIC assays were performed in 96 well plates and MICs were determined in accordance with the broth microdilution protocol.4 Strains grown to stationary-phase in MHB were adjusted to 5 x 10^5 colony-forming units (CFU)/mL in fresh MHB (100 µL/well) supplemented with DMSO to ensure a constant concentration of 0.5% (v/v) DMSO across all experiments. Where […]
or H2O2 (200 μM). Test compounds were prepared as two-fold serial dilutions. Cells were […]
as the lowest concentration with no visible bacterial growth, and the optical density at 600 nm (OD600) was recorded. OD600 measurements were background corrected against no-inocula control and normalized to DMSO control for dose-response analysis. The EC50 value mean and SEM were calculated from individual EC50 values from three biological replicates. […]

[3] = system: SOS response in JE2 cells; assay: SOS reporter assay (GFP under control of the recA promoter); type: cell-based, Staphylococcus aureus; settings: for SOS response (normalized GFP fluorescence/cell): JE2 recA-GFP reporter, SOS activated with CFX (10 µM), titration of compound
Description: A SOS reporter system was generated by transformation of JE2 cells with a plasmid containing GFP under control of the recA promoter. Activation of the SOS response in these cells results in expression of GFP which can be monitored by fluorescence intensity. […] IMP-1700 (10) was coupled with N-Boc-ethylenediamine to afford amide 19, followed by removal of the Boc group in 4 M HCl/dioxane and purification using strong cation exchange resin. The resulting free amine 20 was coupled to N-hydroxysuccinimide (NHS)-activated Sepharose resin at 4 °C overnight (Figure 2C), and the remaining NHS sites quenched in Tris buffer. SoluBL21 competent E. coli were transformed with pET28b^+ containing StrepII-tagged AddA and hexahistidine-tagged AddB, and expression induced overnight at 16 °C. […] Beads were washed three times with lysis buffer and bound protein eluted with SDS-PAGE sample buffer, followed by PAGE separation. […]
JE2 transformed with SOS-inducible pCN34 PrecA-gfp reporter plasmid expressing GFP under the control of the recA promoter were grown to late stationary phase at 37 °C in MHB containing kanamycin (90 μg/mL). Stationary phase JE2 culture (1 mL) was centrifuged (17,000 × g, 2 min), the supernatant removed and cells resuspended in assay media (12.5 µM […]
concentration was maintained >12.5 µM and DMSO concentration maintained at 1.5% (v/v).
JE2 culture (20 uL) was added to inhibitor solutions (180 µL) to a final cell density of 4 x 10^7 CFU/mL and samples incubated in a M200-PRO microplate reader (Tecan) at 37 °C with 700 rpm agitation for 17 h. GFP fluorescence intensity and OD600 were measured at 15 min intervals. Measurements were background corrected against no-inocula control and normalized to no-test inhibitor control at mid-exponential growth phase (4.5 h) for dose-response analysis. […]

[4] = biological target: T1, E. coli topoisomerase IV (Escherichia coli, UniProt P0AFI2+P20083); assay: Topoisomerase IV supercoiling relaxation assay (pQE80L); type: biochemical; settings: at 12.5 µM (compounds)
T1 construct: purchased Inspiralis
Method: 2.1. Biological and biochemical methods […]
(§1) E. coli DNA gyrase supercoiling assay (Inspiralis) was performed according to the manufacturer’s instructions, ensuring a constant concentration of 1% (v/v) DMSO. Samples were separated on a 1% (w/v) agarose gel prepared with Tris/Borate/EDTA (TBE) buffer (1 M Tris-borate, 20 mM EDTA, pH 8.0). Electrophoresis was performed at 100 V until the bromophenol blue dye had run >6 cm to ensure resolution of relaxed and supercoiled DNA.
(§2) The gel was stained with SYBR Safe DNA gel stain (Invitrogen, 1:10,000 dilution in TBE) for 30 min, and visualized on a Syngene Gel Doc system. Band intensity was quantified using ImageJ software and the fraction of supercoiled plasmid was determined as the ratio of the density of the supercoiled band to the total density. Values were background corrected against the no-gyrase control and normalized to DMSO control for dose-response analysis.
E. coli topoisomerase IV supercoiling relaxation assay (Inspiralis) was performed according to the manufacturer’s instructions, ensuring a constant concentration of 1% (v/v) DMSO.
Supercoiled pQE80L was prepared via plasmid purification and used as the substrate for the reaction. Reactions were analyzed as described for DNA gyrase assays. […]

[5] = biological target: T2, E. coli DNA gyrase (Escherichia coli, UniProt P0AES4+P0AES6); assay: DNA gyrase supercoiling assay (pBR322); type: biochemical; settings: at 12.5 μM (compounds); gel and densitometry
T2 construct: purchased Inspiralis
Method: DNA gyrase produces supercoiled DNA from relaxed and open-coiled DNA, which can be separated via agarose gel electrophoresis. […]
as §1, §2

T1 sequence (P0AFI2 whole entry): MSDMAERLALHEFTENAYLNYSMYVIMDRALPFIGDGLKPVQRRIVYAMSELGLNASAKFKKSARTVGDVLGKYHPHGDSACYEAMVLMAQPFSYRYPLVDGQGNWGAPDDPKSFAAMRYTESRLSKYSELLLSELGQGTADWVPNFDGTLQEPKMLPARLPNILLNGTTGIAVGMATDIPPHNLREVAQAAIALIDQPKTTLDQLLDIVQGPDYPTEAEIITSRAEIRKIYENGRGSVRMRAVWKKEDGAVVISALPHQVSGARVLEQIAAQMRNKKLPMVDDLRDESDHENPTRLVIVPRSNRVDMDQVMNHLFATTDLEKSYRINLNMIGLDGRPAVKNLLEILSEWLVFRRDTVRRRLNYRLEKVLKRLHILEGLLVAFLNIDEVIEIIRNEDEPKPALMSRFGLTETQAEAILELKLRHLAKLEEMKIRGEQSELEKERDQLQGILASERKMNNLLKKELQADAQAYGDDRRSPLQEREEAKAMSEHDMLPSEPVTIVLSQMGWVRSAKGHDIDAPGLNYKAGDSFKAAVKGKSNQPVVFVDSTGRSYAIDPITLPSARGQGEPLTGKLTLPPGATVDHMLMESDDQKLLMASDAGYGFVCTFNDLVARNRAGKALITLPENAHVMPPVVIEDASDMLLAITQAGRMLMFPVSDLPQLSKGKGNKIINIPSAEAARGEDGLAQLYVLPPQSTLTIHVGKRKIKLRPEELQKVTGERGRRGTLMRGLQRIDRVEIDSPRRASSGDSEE
T1 sequence (P20083 whole entry): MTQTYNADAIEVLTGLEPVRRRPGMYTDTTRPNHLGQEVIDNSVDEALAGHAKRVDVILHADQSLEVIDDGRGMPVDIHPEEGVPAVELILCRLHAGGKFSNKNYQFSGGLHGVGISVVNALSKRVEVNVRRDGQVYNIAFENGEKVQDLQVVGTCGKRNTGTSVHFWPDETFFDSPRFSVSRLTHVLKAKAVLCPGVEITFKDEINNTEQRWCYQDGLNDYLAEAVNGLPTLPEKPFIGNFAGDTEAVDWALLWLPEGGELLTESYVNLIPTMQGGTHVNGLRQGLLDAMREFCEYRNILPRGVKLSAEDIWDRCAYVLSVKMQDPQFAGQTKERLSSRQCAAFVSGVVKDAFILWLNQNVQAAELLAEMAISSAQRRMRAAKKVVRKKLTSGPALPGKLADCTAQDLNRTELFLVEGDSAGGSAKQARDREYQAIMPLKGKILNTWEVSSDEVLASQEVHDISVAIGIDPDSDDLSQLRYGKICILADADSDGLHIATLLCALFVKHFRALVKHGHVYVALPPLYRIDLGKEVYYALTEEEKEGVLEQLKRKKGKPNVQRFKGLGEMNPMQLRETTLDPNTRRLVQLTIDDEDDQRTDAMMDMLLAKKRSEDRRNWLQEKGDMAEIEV
T2 sequence (P0AES4 whole entry, one chain of several): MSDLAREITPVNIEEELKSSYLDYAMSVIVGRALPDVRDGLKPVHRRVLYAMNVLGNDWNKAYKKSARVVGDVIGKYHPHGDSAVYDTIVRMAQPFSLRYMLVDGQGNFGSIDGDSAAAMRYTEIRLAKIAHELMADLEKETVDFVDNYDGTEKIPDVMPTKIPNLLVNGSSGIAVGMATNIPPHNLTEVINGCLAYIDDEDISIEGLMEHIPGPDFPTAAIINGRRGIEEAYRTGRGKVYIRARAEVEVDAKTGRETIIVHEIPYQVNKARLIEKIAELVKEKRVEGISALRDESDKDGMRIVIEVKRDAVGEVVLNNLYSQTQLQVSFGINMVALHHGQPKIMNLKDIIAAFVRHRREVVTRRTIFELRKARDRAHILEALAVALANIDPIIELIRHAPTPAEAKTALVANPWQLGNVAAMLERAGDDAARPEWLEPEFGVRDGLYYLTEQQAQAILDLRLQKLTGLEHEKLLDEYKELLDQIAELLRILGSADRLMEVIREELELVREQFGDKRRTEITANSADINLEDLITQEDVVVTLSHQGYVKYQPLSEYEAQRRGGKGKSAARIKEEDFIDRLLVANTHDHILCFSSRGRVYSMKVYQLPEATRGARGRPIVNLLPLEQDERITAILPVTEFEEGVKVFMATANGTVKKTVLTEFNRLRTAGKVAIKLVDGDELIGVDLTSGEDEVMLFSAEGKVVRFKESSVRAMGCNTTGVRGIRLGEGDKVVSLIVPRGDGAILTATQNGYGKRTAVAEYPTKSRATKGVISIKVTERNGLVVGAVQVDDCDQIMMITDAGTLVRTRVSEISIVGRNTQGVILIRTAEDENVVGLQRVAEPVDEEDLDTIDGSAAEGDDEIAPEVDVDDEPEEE

Compound | Pulldown of AddA and AddB by compound-functionalized Sepharose [1] | fold weaker potentiation of CFX in MRSA growth assays [2] [fold] | SOS response (normalized GFP fluorescence/cell) [3] | Effect on cell number (OD600) in SOS reporter assay ([3]; JE2 recA-GFP reporter with CFX (10 µM)) | Inhibition of topoisomerase IV [4] | Activity against DNA gyrase [5]
O=C(O)c1cn(C2CC2)c2cc(N3CCN(C(=O)Nc4ccccc4)CC3)c(F)cc2c1=O [Compound 21] | no interaction; also recorded: did not; also recorded: does not pulldown | ~100 | did not inhibit the SOS response; also recorded: SOS activation increased |  |  | 
O=C(O)c1cn(C2CC2)c2cc(N3CCNCC3)c(F)cc2c1=O [CFX, ciprofloxacin, reference compound] |  |  | increase in normalized GFP fluorescence/cell; also recorded: SOS activation increased | decrease in cell number at low micromolar concentrations | inhibited | inhibited
